Entries after “also recorded” stand apart in the source; their conditions may differ.
Key:
Assay type in all cases: cell-based, Human
[1] = tested on: differentiated CD56+ NK cells; test: Flow cytometry of NK cell, maturity and T cell markers on differentiated CD56+ NK cells at day 28
Protocol: CD56^+ NK cells were differentiated as described in Examples 1 and 2 in the presence of 1 μM UM729 and analyzed on day 28 by flow cytometry for the expression of known NK cell markers. Cells were stained with fluorescence-conjugated antibodies against indicated NK cell markers for 15 min at 4° C. Non-specific binding was blocked using FcR blocker and 5% human or rat serum. Dead cells were excluded by light scatter profile and 7-AAD or DRAQ7 staining. Prepared samples were analyzed by flow cytometry.
CD56^+ NK cells were differentiated as described in Examples 1 and 2 in the presence of 1 μM UM729 and analyzed on day 28 by flow cytometry for the expression of known NK cell markers. The cells were stained for the markers described in this Example essentially as described in Example 3. Staining for KIR molecules was performed using a combination of two clones for the antibody, 180704 and HP-MA4, as each recognizes a distinct subset of KIR molecules. Dead cells were excluded by light scatter profile and 7-AAD or DRAQ7 staining.
Production of IFNγ by the differentiated CD56^+ NK cells was also measured. For IFNγ intracellular staining, differentiated CD56^+ NK Cells were stimulated with PMA/Ionomycin for 2 hours. Brefeldin A was added and the cells were incubated for another 2 hours. The cells were harvested and stained for CD56 and Zombie NIR viability dye then fixed, permeabilized and stained for intracellular IFNγ.
CD56^+ NK cells were differentiated as described in Examples 1 and 2 in the presence of pyrimidoindole compounds and analyzed on day 28 by flow cytometry for the expression of a T cell marker. The analyzed cells were stained for CD3 essentially as described in Example 3. Dead cells were excluded by light scatter profile and 7-AAD or DRAQ7 staining.

[2] = tested on: NK cell progenitors; test: Differentiation of cord blood CD34+-derived NK cell progenitors to CD56+ NK cells (culture days 14-28), flow cytometry and cell counts
Protocol: Human CB samples were obtained from Bloodworks NW (Seattle, WA) and CD34^+ cells were isolated using EasySep™ Human Cord Blood CD34 Positive Selection Kit II (STEMCELL Technologies, Catalogue #17896). Obtained in this way the purity of CD34^+ cells is typically higher than 90%.
The wells of a 24-well plate were coated with StemSpan™ Lymphoid Differentiation Coating Supplement (STEMCELL Technologies, Catalogue #09925) and 5000 CD34^+ cells were plated per well. The CD34^+ cells were cultured for up to 14 days in StemSpan™ SFEM II (STEMCELL Technologies, Catalogue #09605, 09655) supplemented with Lymphoid Progenitor Expansion Supplement (STEMCELL Technologies, Catalogue #09915) with media changes every 3-4 days.
After 14 days in culture, CD34^+ cell-derived NK cell progenitors were harvested. 50,000 NK cell progenitors were plated per well of an uncoated tissue culture 24-well plate. The plated NK cell progenitors were cultured for up to two weeks in NK Cell Differentiation medium (i.e StemSpan™ SFEM II (STEMCELL Technologies, Catalog # 09605, 09655) supplemented with NK Cell Differentiation Supplement (STEMCELL Technologies, Catalogue #09950), and cultured for an additional two weeks with media changes every 3-4 days. UM729 or UM171 was added to supplemented NK Cell Differentiation Medium on days 14-28. On day 28 cells were harvested for analysis or downstream applications.
Harvested cells were stained and measured by flow cytometry for expression of the NK cell lineage marker CD56. Dead cells were excluded by light scatter profile and 7-AAD or DRAQ7 staining. The results in FIGS. 1 and 2 at condition “0” (plotted on the x-axis) indicate the frequency and yield of CD56^+ NK cells that result from experiments that follows the protocol described above but in the absence of UM171 or UM729. Cell counts were obtained using the NucleoCounter NC250. Yield was calculated by dividing the resulting cell number by the number of cells initially seeded. Yields of specific cell types were obtained by multiplying total yield by cell frequency.
Cells were cultured as described in Example 1, with the exception that the up to two week culture of NK cell progenitors (i.e. culture days 14-28) in NK Cell Differentiation medium occurred in the presence or absence of UM171 or UM729.
The effects of UM171 and UM729 were tested across a range of concentrations: 0 nM, 50 nM, 100 nM, 150 nM and 200 nM for UM171; and 0 μM, 0.25 μM, 0.5 μM, 1 μM, and 2 μM for UM729.
CD34^+ CB cells were isolated and cultured as described in Example 1 up to the day 14 time point. Day 14 NK cell progenitors were further cultured in NK Cell Differentiation medium, essentially as described in Example 1, except in the absence of an added pyrimidoindole compound but in the presence or absence of 5 μM CH223191.

[3] = tested on: PSC-derived CD34+ cells; test: Differentiation of PSC-derived CD34+ cells into CD5+CD7+ NK cell progenitors; settings: 1 μM UM729 during days 10 to 24; PSC lines 1C, M001, H1, F016
Protocol: PSC-derived […] cells were generated as described in Example 11. The PSC-derived […] cells were cultured as described in Example 11, except the effect of the presence or absence of 1 μM UM729 on the differentiation of a population of NK cell progenitors was assessed. The cells were stained for CD5 and CD7 essentially as described in Example 3 and analyzed for frequency of CD5^+CD7^+ cells and yield of CD5^+CD7^+ cells per 5×10^4 input PSC-derived […] cells. Both the frequency (FIG. 15A) and yield (FIG. 15B) of CD5^+CD7^+ cells decreased after culturing the PSC-derived […] cells in the presence of UM729, as compared to culturing such cells in the absence of UM729. Therefore, the presence of UM729 during days 10 to 24 of culturing PSC-derived […] cells decreases the frequency and yield of CD5^+CD7^+ NK progenitor cells.

[4] = cells differentiated in the presence of 1 μM UM729, day 28
[5] = 1 μM UM729, normalized to STD cultures, n=20
[6] = tested 0, 0.25, 0.5, 1, 2 μM, days 14-28

SMILES: COC(=O)c1ccc2c(c1)[nH]c1ncnc(NCCCN3CCCCC3)c12 [UM729, methyl 4-((3-(piperidin-1-yl)propyl)amino)-9H-pyrimido[4,5-b]indole-7-carboxylate]
- Analyzed cells co-expressing CD56 and CD16 [1, 4]: approximately 17%
- Analyzed cells co-expressing CD56 and CD94 [1, 4]: approximately 18%
- Analyzed cells co-expressing CD56 and KIR [1, 4]: approximately 10%
- Analyzed cells co-expressing CD56 and NKG2D [1, 4]: approximately 50%
- Analyzed cells co-expressing CD56 and NKp30 [1, 4]: approximately 80%
- Analyzed cells co-expressing CD56 and NKp44 [1, 4]: approximately 80%
- Analyzed cells co-expressing CD56 and NKp46 [1, 4]: approximately 70%
- Differentiated CD56+ NK cells expressing intracellular IFNγ upon stimulation ([1]; cells differentiated in the presence of 1 μM UM729, PMA/Ionomycin 2 hours, then Brefeldin A 2 hours): approximately 58%
- Expression of CD3 among differentiated cells ([1]; cord blood sample of a second donor, 1 μM UM729, day 28): virtually absent; also recorded: do not express CD3
- Frequency of CD56+ NK cells compared to cultures lacking UM729 ([2]; 1 μM UM729, 14 days culture of NK cell progenitors, paired t-test p=0.017): increased significantly
- Yield of CD56+ NK cells per input cell compared to cultures lacking UM729 ([2]; 1 μM UM729, 14 days culture of NK cell progenitors, paired t-test p=0.032): increased significantly
- Increase of average frequency of NK cells compared to culture conditions not including a pyrimidoindole compound [2, 5]: ~ 30%
- Increase of average yield of NK cells compared to culture conditions not including a pyrimidoindole compound [2, 5]: 2 fold
- Concentration at which frequency of CD56+ NK cells appeared to be highest [2, 6]: 1 µM
- Concentration at which yield of CD56+ NK cells appeared to be highest [2, 6]: 1 µM
- Frequency of CD5+CD7+ cells compared to absence of UM729 [3]: decreased
- Yield of CD5+CD7+ cells per 5×10^4 input PSC-derived cells compared to absence of UM729 [3]: decreased

Source: patent US12723233B2, “Media and methods for differentiating natural killer cells” (STEMCELL Technologies Canada Inc., priority 2018, dated 2026)
